Assays:
[1] = test system: VDR (VDRE-luciferase-reporter construct); experiment: VDRE Reporter Gene Assay in HEK cells with stable expression of VDR; format: cell-based; settings: Homo sapiens, HEK293, 24 hours
Experimental: Compound activity was also assessed by looking at a Vitamin D Response Element (VDRE) reporter gene assay, Human Embryonic Kidney cells (HEK cells) with a stable expression of VDR were cultured in 96-well plates at ˜4×10^5 cells/mL (100 μL/well) in DMEM medium containing 10% fetal calf serum. Cells were transfected with 0.2 μg per well of a VDRE-luciferase-reporter construct (from Y. Li, University of Chicago) and then treated with test agents at indicated concentrations for 24 hours. The luciferase activity was then measured following the manufacturer's instructions (Promega, Madison, Wis.).

5/6 NX rats = experiment: Study 1: serum PTH, ionized Ca++, total Ca++ and phosphorus in the 5/6 NX rat model; format: in vivo; settings: for decrease in PTH: Day 0 vs. Day 13
Experimental: Study 1: The purpose of the study was to compare the effects of Example 1 on serum PTH, ionized Ca++, total Ca++ and phosphorus in the 5/6 NX rat model.
Methods: 5/6 NX rats were fed a normal diet (Teklad 8640; 0.9% Phos. and 1.1% Ca++) for 4 weeks prior to study at 6 weeks uremia, and were maintained on this diet for the duration of the study. 5/6 NX rats were treated with vehicle and 10, 30 or 100 μg/kg of A-Example 1. Rats were dosed i.p. 3×/week for 2 weeks. Blood was collected on Days 0 and 13 for determination of concentrations of PTH, ionized Ca++, total Ca++ and phosphorus.

5/6 nephrectomized rats = experiment: Aortic Calcification in Uremic Rats; format: in vivo, rat; settings: 5/6 NX rats, at <100 μg/kg, i.p. 3 times per week for 41 Days
Experimental: 5/6 nephrectomized rats: Male Sprague-Dawley, 5/6 NX rats (˜200 g) were obtained from Charles River. The nephrectomy was performed using a standard two-step surgical ablation procedure. Beginning approximately 2 weeks post-nephrectomy, rats were maintained on a hyperphosphatemia-inducing diet (0.9% phosphorus and 0.6% calcium) for the duration of the study to induce secondary hyperparathyroidism (SHPT). After four weeks on the special diet, rats received vehicle (5% ethanol/95% propylene glycol; 0.4 mL/kg; i.p.) or test agent 3 times per week for 41 Days. On Days 0, 13, and 41 blood was collected (24 hours post-dose).
To minimize bias induced by variance in the disease state, 5/6 NX rats were assessed after 4 weeks of high phosphorus diet (prior to treatment) and the following inclusion/exclusion criteria were applied to the rats for study: • Serum creatinine=0.8-2.0 mg/dL (sham controls=0.43±0.01 mg/dL; n=20) • Exclude: serum calcium≦8.5 mg/dL (sham controls=10.05±0.05 mg/dL; n=20) • Exclude: serum phosphorus>12 mg/dL (sham controls=7.09±0.12 mg/dL; n=20) • Exclude: iPTH<400 pg/mL (sham controls=430±33 pg/mL; n=20)
Measurement of PTH and serum mineral levels: Serum PTH was measured using a rat intact PTH ELISA kit (ALPCO/lmmutopics, Inc., Windham, N.H.). Serum calcium, phosphorus, creatinine and BUN concentrations were measured using an Abbott Aeroset® (Abbott, Abbott Park, Ill.). […]

[2] = test system: Thrombomodulin mRNA in human coronary artery smooth muscle cells (CASMC); experiment: Thrombomodulin mRNA in CASMC; format: cell-based; settings: Homo sapiens
Experimental: Primary culture of human coronary artery smooth muscle cells (CASMC) (commercially available from Cambrex, Walkersville, Md.) were grown in smooth muscle growth medium SmGM-2 (commercially available from Lonza Bioscience) containing 5.5 mM glucose, 5% FBS, 50 μg/ml gentamicin, 50 ng/ml amphotericin-B, 5 μg/ml insulin, 2 ng/ml human recombinant fibroblast growth factor (hFGF), and 0.5 ng/ml human recombinant epidermal growth factor (hEGF) at 37° C. in a humidified 5% CO2-95% air atmosphere. Cells were grown to >80% confluence and used within five passages.
Real-time reverse transcription-PCR was performed with a MyiQ Real-Time PCR Detection System (BioRad, Hercules, Calif.). Each sample has a final volume of 25 μl containing 100 ng of cDNA, […] each of the forward and reverse PCR primers and […] of the TaqMan™ probe for the gene of interest (Applied Biosystems, Foster City, Calif.). Temperature conditions consisted of a step of 5 minutes at 95° C., followed by 40 cycles of 60° C. for 1 minute and 95° C. for 15 seconds. Data was collected during each extension phase of the PCR reaction and analyzed with the software package (BioRad, Hercules, Calif.). Threshold cycles were determined for each gene. […]

[3] = target: T1, recombinant full-length human Vitamin D nuclear receptor (Homo sapiens, UniProt P11473); experiment: biochemical
T1 sequence (P11473 1-427): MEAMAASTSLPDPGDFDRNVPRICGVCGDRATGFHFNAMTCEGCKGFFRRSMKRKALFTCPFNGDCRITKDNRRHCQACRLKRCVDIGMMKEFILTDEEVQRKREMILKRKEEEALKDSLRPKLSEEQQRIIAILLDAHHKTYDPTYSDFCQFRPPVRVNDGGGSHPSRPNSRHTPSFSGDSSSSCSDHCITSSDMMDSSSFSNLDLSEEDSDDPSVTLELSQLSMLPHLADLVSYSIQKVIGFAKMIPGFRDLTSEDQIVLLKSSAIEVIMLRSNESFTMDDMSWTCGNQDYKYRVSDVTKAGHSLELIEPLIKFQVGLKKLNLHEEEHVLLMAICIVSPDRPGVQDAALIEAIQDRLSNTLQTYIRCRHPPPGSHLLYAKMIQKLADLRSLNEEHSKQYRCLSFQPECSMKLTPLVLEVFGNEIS
Experimental: In vitro binding of selected compounds according to the invention to VDR was assessed using the following procedure. […] Each test compound was then serially diluted in binding buffer to concentrations appropriate for the assay, as one skilled in the art can determine.
Final assay volume was 100 uL. The filled plate was incubated overnight at 4° C. with gentle shaking. After 18 hours of incubation, 20 uL of wheat germ agglutinin-coated yttrium silicate scintillation proximity assay (SPA) beads (commercially available from Amersham Biosciences, Piscataway, N.J.; Part # RPNQ0270) resuspended in binding buffer was added to each well (200 ug/well) and the plate was incubated at room temperature for 2 hours with gentle shaking.

[4] = 5/6 NX rats, 100 μg/kg i.p. 3×/week for 2 weeks

EC50 [1]: 0.4 nM
ionized Ca++ (5/6 NX rats; [4]): elevated
total Ca++ (5/6 NX rats; [4]): elevated
serum phosphorus levels (5/6 NX rats; 5/6 NX rats, 10, 30 or 100 μg/kg i.p. 3×/week for 2 weeks): did not affect
effect on aortic calcification (5/6 nephrectomized rats): did not have an effect
EC50 [2]: 2.2 nM
IC50 [3]: 496 nM
SMILES: C=C1[C@H](O)CC(=C/C=C2\CCC[C@]3(C)[C@@H]([C@H](C)COC(=O)C(C)(C)C)CC[C@@H]23)C[C@H]1O [Example 1, (2S)-2-[(1R,3R,7E, 17β)-1,3-dihydroxy-2-methylene-9,10-secoestra-5,7-dien-17-yl]propyl pivalate]
decrease in PTH (5/6 NX rats; 5/6 NX rats, 30 μg/kg i.p. 3×/week for 2 weeks): 26%
decrease in PTH (5/6 NX rats; [4]): 78%
